# Assay results from patent US7087575B2, “Treating the effect of nicotine” (Mayo Foundation for Medical Education and Research, priority 2002, dated 2006).
# Legend:
# rats = assay: Nicotine sensitization, weekly treatment for six weeks, locomotor activity; assay type: in vivo, rat
# Procedure: (§1) Animals and treatment protocol: Male Sprague-Dawley rats weighing 200–250 g were housed in a temperature-controlled room with free access to food and water under artificial 12 hour light/dark cycle. All tests were conducted during the light cycle. The animals received an intraperitoneal (i.p.) injection of either NT69L (1 mg/kg) or an equivalent volume (100 μl) of saline. Thirty minutes after the first injection, the rats received subcutaneous (s.c.) injections of saline or nicotine (0.35 mg/kg). These injections were repeated once a day for 15 days. On days 1 and 15, rats were placed in a Plexiglass Opto-Varimax Minor motility chamber (Columbus Instruments, Columbus, Ohio) and allowed to acclimate for one hour. Baseline activity was recorded for 30 minutes for each rat. The rats then were injected with either saline or NT69L and replaced in the chamber. After 30 minutes, each rat was injected with either saline or nicotine and returned to the chamber. Activity was recorded for 60 minutes. After testing for locomotor activity on day 15, animals were sacrificed. Brain sections were dissected on ice and maintained on dry ice until they were frozen at −80° C., at which temperature they were stored until being assayed. [^3H] cytisine binding: Nicotinic receptor binding sites in membrane homogenates of frozen tissue were measured using [^3H] cytisine according to the method of Pabreza et al. [(1991) Mol. Pharmacol. 39:9–12]. Frozen tissue was resuspended in 50 mM Tris-HCl buffer (pH 7.4), homogenized with a Brinkmann Polytron (setting 6), and washed twice in fresh Tris buffer by centrifugation at 35000×g. The resulting pellets were resuspended in buffer. Aliquots of homogenates were added to tubes containing [^3H] cytisine in the presence or absence of 100 μM nicotine and incubated in a final volume of 250 μl for 75 minutes at 4° C. The binding reactions were terminated by filtration through GF/B filter paper that was mounted on a Brandel cell harvester. Filters were presoaked in 0.5% polyethylenimine to reduce binding of radioligand to the filter. The filters were washed 3 times with cold 0.9% NaCl and counted in a scintillation counter. The data were analyzed using the PC version of the ligand software program. Specific binding was defined as the difference between binding in the presence and absence of 100 μM nicotine.
# For a longer term study of nicotine sensitization, rats were divided into seven groups that were treated once a week for six weeks with saline or NT69L followed by a challenge with saline or 0.35 mg/kg nicotine. These experiments allowed examination of both the initiation and expression phases of sensitization. Group 1 received saline/saline each week. Group 2 received saline/saline for the first five weekly treatments, and saline/nicotine in the sixth week. Group 3 received saline/nicotine each week. Group 4 received NT69L/saline each week. Group 5 received NT69L/nicotine each week. Group 6 received NT69L/nicotine for the first five weekly treatments, and saline/nicotine in the sixth week. Group 7 received saline/nicotine for the first five weekly treatments, and NT69L/nicotine in the sixth week. Locomotor activity was measured after each weekly treatment, as described in Example 1.
# [1] = tested on: dopamine and its metabolites; assay: Dopamine and metabolites in striatum and PFC by HPLC-EC after in vivo treatment; set-up: species or system rat
# Procedure: Striatal dopamine: Brain dopamine levels were analyzed using high performance liquid chromatography with electrochemical detection (HPLC-EC, ESA, Inc., Chemsford, Mass.), according to previously described procedures (Kilts et al. (1981) J. Chromatogr. 225:347–357; and Krstulovic (1982) J. Chromatogr. 229:1–34). Rats were sacrificed by decapitation, brains were removed, and the striatal tissue was weighed and homogenized in 10 volumes of ice-cold 0.1 N perchloric acid containing 10 mM EDTA. Tissue homogenates were centrifuged at 26,000×g for 10 minutes at 4° C. A 20 μl aliquot of the diluted supernatant was injected onto an HPLC system with an MD-150/RP-C18 column (ESA). The mobile phase contained 10% acetonitrile with 75 mM sodium dihydrogen phosphate, 1.7 mM 1-octane sulfonic acid sodium salt, 0.01% triethylamine, and 25 μM EDTA, pH 3.0. The flow rate was maintained at 0.5 ml/minute. The detector potentials were set at: 350 mV; E1:−175 mV and E2:250 mV. The concentration of dopamine in each sample was quantified by comparison of area under curve (AUC) between samples and external standards run on the same day.
# Sprague Dawley rats were treated as described above. Animals were sacrificed on day 15 after being tested for locomotor activity. Striatal and PFC tissues were harvested on ice and frozen at −80° C. until being assayed for dopamine metabolism as detailed in Example 1.
# [2] = tested on: Nicotinic receptor binding sites; assay: [3H] cytisine binding in brain membrane homogenates after in vivo treatment; set-up: species or system rat; settings: for increase in cytisine binding in the VTA: vs saline control, only chronic injection of NT69L significant (P<0.05)
# Procedure: as §1
# Sprague Dawley rats were maintained and treated as described above. Animals were sacrificed on day 15 after being tested for locomotor activity. PFC and VTA sections were harvested on ice and frozen at −80° C until being assayed for cytisine binding as described in Example 1.
# Sprague Dawley rats = assay: Nicotine-induced locomotor activity, daily treatment for 15 days; assay type: in vivo, rat
# Procedure: as §1
# Sprague Dawley rats were divided into seven groups and injected daily for 14 days with the treatment listed outside the parentheses under each pair of columns in FIG. 1. On day 15, the rats were injected with the treatment listed inside the parentheses under each pair of columns. Locomotor activity was recorded on days 1 and 15. Rats were placed in a motility chamber for one hour for acclimation. A 30 minute baseline was recorded for each rat. The rats were injected with either saline or NT69L and placed in the chamber for 30 minutes. Each rat was then removed from the chamber, injected with either nicotine or saline, and returned to the chamber. Activity was recorded for 60 minutes, and is shown in counts per 10 minute interval.
# norepinephrine = assay: Norepinephrine levels in brain tissue after in vivo treatment; set-up: species or system rat
# Procedure: Sprague Dawley rats were treated as described above. Animals were sacrificed on day 15 after being tested for locomotor activity. PFC sections were harvested on ice and frozen at −80° C. until being assayed for norepinephrine levels.
# dopamine D2 receptor = assay: Dopamine D2 receptor binding assay ([3H] raclopride) in striatum after in vivo treatment; set-up: species or system rat
# Procedure: Dopamine D2 receptor binding assay: Homogenized brain tissue was assayed for dopamine D2 receptor binding by the method of Bowden et al. [(1997) Brain Res. 752:227–233]. Briefly, brain tissue was homogenized in buffer (50 mM Tris-HCl, 5 mM KCl and 120 mM NaCl, pH 7.5) and centrifuged at 26,000×g for 10 minutes at 4° C. Pellets were resuspended in buffer to 1 mg/10 μl and immediately used for binding. Aliquots of […] tissue homogenates were added to 25 PI [^3H] raclopride and 25 μl buffer (for total binding) or 25 μl of […] sulipride (for nonspecific binding) in a total volume of 250 μl, and incubated at room temperature for 90 minutes. Membrane-bound radioactivity was recovered by filtration under vacuum through Whatman GF/B filters using a Brandel cell harvester. Filters were washed with ice-cold PBS and radioactivity was determined by liquid scintillation counting. Protein levels were quantified using the Micro BCA assay (Pierce, Rockford, Ill.).
compound,measurement,setting,value
CN1CCCC1c1cccnc1 (stereo not shown) [nicotine],locomotor activity after nicotine challenge without NT69L,rats; nicotine 0.35 mg/kg in the sixth week only (group 2),resulted in hyperactivity
same,locomotor activity after nicotine challenge without NT69L,rats; nicotine challenge each week (group 3),resulted in increased activity
same,levels of dopamine and its metabolites as compared to saline control,"[1]; PFC, fifteen daily injections of nicotine",232%
same,increase in levels of dopamine and its metabolites,"[1]; PFC, single injection of nicotine, P<0.05",400%
same,increase in striatal dopamine levels,"[1]; striatum, single injection of nicotine vs sal/sal(sal/sal), P<0.05",192%
same,increase of cytisine binding in prefrontal cortex,"[2]; fifteen daily injections of nicotine vs saline control, P<0.05",62%
same,cytisine binding in the PFC,[2]; single nicotine injection on day 15 vs sal/sal(sal/sal),"tended to increase cytisine binding in the PFC, but not to a significant level"
same,increase in cytisine binding in the VTA,[2],35%
same,increase in peak activity (sensitization),"Sprague Dawley rats; daily nicotine injections, day 1 vs. day 15",> 60%
same,peak level of locomotor activity,"Sprague Dawley rats; single injection of nicotine 0.35 mg/kg s.c. vs control group sal/sal(sal/sal), P<0.001",significantly increased
same,increase of norepinephrine levels in the PFC,"norepinephrine; acute and chronic treatment with nicotine vs saline control, P<0.05",213–300%
N-methyl-Arg-Lys-Pro-L-neo-Trp-tert-Leu-Leu [NT69L],dopamine (D2) receptor binding in striatum across nicotine and NT69L treatment groups,dopamine D2 receptor,No difference
same,effect on nicotine-induced hyperactivity,rats; NT69L before nicotine challenge each week (group 5),largely prevented the hyperactivity
same,activity after NT69L in the sixth week,"rats; five weeks nicotine without NT69L, then NT69L/nicotine in week six (group 7)",significant decrease in activity
same,initiation and expression of nicotine sensitization,rats; weekly treatment for six weeks,effectively blocked
same,lowering of the nicotine-induced increase in dopamine,"[1]; PFC, injection of NT69L for 15 days",62%
same,lowering of the nicotine-induced increase in dopamine,"[1]; PFC, pretreating with NT69L before nicotine injection on day 15",28%
same,effect on dopamine levels in the striatum,[1]; pretreatment with NT69L,did not significantly affect
same,reduction of cytisine binding caused by acute nicotine injection,"[2]; PFC, NT69L daily for 15 days, acute, but not chronic, nicotine",62%
same,reduction of the increase in cytisine binding caused by 15 daily injections of nicotine,"[2]; PFC, acute injection of NT69L prior to nicotine on day fifteen",65%
same,increase in cytisine binding in the VTA,[2],35%
same,reduction of nicotine-induced hyperactivity,"Sprague Dawley rats; acute injection of NT69L 1 mg/kg i.p. on day 1, 30 minutes prior to nicotine, P<0.001",24%
same,reduction of the magnitude of locomotor sensitization,Sprague Dawley rats; daily injection of NT69L,24%
same,locomotor activity 69/sal vs sal/sal groups (sedation),"Sprague Dawley rats; day 1, NT69L 1 mg/kg i.p. without nicotine",no significant difference
same,activity compared with saline after fifteen days of treatment,"Sprague Dawley rats; sal/nic(sal/nic) vs. 69/nic(69/nic), P<0.05",statistically significant reduction in activity
same,sensitized nicotine-induced activity after NT69L,"Sprague Dawley rats; single injection of NT69L 30 minutes prior to nicotine on the fifteenth day of nicotine administration, P<0.001",10 % of control
same,reduction in norepinephrine levels,"norepinephrine; PFC, daily injections of NT69L, single injection of nicotine",40%
same,norepinephrine in the striatum between treatment groups,norepinephrine; striatum,No significant differences
